The record followed here is PMC11345841, “Exploring 2-Sulfonylpyrimidine Warheads as Acrylamide Surrogates for Targeted Covalent Inhibition: A BTK Story” (Journal of Medicinal Chemistry, 2024).

One test has as its target T1, ALK(L1196M) (Homo sapiens, UniProt Q9UM73, L1196M).
T1 construct: purchased Eurofins DiscoverX KINOMEscan (scanTK)
The test is described as follows: KINOMEscan ScanTK. It is filed as binding.

The next test has as its target T2, MET(Y1235D) (Homo sapiens, UniProt P08581, Y1235D).
T2 construct: purchased Eurofins DiscoverX KINOMEscan (scanTK)
Nature of the test: KINOMEscan ScanTK. It is filed as binding.

The next test has as its target T3, FLT3(R834Q) (Homo sapiens, UniProt P36888, R834Q).
T3 construct: purchased Eurofins DiscoverX KINOMEscan (scanTK)
T3 sequence (P36888 27-993 R834Q): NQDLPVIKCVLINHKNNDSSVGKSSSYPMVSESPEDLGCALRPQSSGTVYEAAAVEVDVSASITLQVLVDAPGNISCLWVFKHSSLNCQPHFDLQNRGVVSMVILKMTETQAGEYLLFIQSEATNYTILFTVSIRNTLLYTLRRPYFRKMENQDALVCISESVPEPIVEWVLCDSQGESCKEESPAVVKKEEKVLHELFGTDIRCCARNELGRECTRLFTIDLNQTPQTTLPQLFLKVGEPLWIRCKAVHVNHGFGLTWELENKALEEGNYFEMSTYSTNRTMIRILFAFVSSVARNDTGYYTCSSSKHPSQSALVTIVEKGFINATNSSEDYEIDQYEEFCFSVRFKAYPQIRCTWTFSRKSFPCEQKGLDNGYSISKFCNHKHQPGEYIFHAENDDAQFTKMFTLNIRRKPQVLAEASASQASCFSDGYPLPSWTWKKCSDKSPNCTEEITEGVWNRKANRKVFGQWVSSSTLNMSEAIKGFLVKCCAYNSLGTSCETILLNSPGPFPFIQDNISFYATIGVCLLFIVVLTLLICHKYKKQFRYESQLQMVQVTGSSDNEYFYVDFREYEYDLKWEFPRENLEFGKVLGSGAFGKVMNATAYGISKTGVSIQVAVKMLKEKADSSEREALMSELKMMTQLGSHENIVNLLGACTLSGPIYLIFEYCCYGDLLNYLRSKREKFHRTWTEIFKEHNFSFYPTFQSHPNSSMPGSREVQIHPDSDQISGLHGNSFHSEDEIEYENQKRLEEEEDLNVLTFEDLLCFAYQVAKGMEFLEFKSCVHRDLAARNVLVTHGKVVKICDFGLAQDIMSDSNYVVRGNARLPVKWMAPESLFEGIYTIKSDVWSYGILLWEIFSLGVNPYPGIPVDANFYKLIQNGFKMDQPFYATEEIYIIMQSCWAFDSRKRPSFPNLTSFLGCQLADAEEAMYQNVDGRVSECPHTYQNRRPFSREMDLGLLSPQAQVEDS
The test is described as follows: KINOMEscan ScanTK. The class given is binding.

Another test deals with T4, EPHA3 (Homo sapiens, UniProt P29320).
T4 construct: purchased Eurofins DiscoverX KINOMEscan (scanTK)
T4 sequence (P29320 21-983): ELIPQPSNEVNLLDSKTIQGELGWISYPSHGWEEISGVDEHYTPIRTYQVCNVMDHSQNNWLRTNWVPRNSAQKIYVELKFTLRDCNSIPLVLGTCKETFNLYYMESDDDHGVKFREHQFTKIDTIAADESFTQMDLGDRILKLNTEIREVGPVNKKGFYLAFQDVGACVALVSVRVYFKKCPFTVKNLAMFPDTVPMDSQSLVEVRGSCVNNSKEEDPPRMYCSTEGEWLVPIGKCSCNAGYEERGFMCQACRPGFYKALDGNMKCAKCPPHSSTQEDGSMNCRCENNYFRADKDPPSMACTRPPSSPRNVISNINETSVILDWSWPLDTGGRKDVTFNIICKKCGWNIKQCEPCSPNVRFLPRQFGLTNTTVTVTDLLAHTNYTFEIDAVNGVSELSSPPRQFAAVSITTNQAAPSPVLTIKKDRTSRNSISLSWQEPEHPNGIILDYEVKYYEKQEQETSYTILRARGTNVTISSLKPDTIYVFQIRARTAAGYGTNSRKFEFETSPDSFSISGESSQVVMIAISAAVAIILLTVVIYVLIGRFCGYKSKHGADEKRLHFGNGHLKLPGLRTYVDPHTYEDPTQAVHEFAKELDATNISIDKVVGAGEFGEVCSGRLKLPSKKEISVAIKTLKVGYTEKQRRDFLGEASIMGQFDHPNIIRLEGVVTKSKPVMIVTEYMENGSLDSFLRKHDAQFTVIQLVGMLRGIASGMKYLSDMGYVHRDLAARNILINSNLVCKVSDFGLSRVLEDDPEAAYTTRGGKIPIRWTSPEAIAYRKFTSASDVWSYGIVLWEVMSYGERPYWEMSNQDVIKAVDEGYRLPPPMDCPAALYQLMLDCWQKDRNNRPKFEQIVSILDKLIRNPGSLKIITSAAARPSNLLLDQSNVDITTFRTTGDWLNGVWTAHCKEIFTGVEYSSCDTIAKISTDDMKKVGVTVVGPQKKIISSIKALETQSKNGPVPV
The test is described as follows: KINOMEscan ScanTK. It is filed as binding.

The target in the next test is wild-type BTK (Homo sapiens, UniProt Q06187). Nature of the test: BTK in vitro activity assay (ADP-Glo, poly-Glu:Tyr phosphorylation, TCEP). The conditions noted are these: for remaining activity at 0.1 µM: read-out: Remaining BTK activity (%).
Chain of wild-type BTK (Q06187 whole entry): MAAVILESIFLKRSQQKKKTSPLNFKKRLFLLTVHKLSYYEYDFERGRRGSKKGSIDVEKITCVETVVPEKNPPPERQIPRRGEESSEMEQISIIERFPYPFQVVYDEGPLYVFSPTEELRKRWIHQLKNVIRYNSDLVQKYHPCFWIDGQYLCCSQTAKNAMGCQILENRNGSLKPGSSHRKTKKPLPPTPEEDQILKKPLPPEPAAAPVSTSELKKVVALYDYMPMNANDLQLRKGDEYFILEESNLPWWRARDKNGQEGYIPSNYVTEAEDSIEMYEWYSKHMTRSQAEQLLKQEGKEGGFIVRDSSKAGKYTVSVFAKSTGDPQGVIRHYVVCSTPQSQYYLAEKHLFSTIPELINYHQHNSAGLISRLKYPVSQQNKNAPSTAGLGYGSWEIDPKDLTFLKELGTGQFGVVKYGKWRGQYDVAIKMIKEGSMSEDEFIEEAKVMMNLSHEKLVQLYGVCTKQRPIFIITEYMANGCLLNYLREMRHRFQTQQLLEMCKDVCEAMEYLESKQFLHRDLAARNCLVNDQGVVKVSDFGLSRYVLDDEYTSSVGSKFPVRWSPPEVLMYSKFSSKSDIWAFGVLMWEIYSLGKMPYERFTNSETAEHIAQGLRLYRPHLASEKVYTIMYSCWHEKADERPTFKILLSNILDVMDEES
The next test deals with T5, BMX (Homo sapiens, UniProt P51813).
T5 construct: purchased Eurofins DiscoverX KINOMEscan (scanTK)
T5 sequence (P51813 1-675): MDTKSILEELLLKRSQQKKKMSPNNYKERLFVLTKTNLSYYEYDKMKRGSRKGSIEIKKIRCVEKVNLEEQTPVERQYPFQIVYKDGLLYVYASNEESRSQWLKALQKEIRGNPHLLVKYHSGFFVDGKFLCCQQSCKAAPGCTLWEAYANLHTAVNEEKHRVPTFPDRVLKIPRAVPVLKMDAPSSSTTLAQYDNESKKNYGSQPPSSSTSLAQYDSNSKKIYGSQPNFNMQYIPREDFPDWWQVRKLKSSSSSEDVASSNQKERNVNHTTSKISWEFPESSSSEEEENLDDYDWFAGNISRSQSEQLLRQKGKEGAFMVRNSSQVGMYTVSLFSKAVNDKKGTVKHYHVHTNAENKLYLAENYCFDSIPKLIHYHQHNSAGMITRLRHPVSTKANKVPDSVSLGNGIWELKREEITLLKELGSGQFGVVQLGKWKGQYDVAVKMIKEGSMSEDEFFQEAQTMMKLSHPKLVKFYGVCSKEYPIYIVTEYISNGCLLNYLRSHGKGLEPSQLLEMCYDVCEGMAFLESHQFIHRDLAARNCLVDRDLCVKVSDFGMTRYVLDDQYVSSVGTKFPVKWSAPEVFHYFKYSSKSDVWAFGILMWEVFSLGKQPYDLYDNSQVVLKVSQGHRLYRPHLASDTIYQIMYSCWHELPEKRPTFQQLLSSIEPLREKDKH
Nature of the test: KINOMEscan ScanTK. The class given is binding.

Where two headings read alike, the source gives them in different places.

T2 sequence (P08581 25-1390 Y1235D): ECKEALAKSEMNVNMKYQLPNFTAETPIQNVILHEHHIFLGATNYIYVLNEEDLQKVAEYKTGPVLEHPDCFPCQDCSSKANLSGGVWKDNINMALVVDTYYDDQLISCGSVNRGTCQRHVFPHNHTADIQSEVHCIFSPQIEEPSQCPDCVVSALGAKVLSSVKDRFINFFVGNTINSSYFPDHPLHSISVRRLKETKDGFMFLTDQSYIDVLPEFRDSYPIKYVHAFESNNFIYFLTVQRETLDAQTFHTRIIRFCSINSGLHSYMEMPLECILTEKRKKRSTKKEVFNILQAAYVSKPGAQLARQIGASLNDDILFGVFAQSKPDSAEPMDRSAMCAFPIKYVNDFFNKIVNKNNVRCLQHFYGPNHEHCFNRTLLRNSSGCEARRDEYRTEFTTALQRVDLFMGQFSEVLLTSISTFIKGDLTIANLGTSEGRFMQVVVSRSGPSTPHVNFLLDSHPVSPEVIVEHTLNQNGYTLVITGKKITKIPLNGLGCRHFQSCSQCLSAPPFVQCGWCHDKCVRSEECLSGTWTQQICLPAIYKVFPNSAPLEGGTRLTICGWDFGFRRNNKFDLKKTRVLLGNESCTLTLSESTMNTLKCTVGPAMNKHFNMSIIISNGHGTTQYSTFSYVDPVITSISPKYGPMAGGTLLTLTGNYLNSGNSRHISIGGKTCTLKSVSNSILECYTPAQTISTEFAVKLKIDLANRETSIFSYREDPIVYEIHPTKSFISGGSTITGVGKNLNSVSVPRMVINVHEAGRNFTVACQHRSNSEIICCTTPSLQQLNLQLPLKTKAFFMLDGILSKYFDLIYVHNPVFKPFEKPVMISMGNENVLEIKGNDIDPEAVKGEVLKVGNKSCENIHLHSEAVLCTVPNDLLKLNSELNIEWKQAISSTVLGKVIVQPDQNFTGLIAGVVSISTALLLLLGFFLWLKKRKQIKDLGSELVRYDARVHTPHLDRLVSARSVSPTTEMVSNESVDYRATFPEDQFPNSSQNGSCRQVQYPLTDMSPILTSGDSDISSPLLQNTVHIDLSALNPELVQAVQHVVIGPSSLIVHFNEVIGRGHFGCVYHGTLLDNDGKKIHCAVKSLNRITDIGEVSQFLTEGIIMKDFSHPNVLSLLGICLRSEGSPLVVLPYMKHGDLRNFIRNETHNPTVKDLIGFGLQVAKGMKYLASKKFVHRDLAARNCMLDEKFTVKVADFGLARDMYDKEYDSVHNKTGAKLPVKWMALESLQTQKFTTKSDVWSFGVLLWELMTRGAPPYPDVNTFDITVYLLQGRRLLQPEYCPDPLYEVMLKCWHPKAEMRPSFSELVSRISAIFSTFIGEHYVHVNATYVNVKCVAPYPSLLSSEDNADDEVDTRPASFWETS
T1 sequence (Q9UM73 19-1620 L1196M): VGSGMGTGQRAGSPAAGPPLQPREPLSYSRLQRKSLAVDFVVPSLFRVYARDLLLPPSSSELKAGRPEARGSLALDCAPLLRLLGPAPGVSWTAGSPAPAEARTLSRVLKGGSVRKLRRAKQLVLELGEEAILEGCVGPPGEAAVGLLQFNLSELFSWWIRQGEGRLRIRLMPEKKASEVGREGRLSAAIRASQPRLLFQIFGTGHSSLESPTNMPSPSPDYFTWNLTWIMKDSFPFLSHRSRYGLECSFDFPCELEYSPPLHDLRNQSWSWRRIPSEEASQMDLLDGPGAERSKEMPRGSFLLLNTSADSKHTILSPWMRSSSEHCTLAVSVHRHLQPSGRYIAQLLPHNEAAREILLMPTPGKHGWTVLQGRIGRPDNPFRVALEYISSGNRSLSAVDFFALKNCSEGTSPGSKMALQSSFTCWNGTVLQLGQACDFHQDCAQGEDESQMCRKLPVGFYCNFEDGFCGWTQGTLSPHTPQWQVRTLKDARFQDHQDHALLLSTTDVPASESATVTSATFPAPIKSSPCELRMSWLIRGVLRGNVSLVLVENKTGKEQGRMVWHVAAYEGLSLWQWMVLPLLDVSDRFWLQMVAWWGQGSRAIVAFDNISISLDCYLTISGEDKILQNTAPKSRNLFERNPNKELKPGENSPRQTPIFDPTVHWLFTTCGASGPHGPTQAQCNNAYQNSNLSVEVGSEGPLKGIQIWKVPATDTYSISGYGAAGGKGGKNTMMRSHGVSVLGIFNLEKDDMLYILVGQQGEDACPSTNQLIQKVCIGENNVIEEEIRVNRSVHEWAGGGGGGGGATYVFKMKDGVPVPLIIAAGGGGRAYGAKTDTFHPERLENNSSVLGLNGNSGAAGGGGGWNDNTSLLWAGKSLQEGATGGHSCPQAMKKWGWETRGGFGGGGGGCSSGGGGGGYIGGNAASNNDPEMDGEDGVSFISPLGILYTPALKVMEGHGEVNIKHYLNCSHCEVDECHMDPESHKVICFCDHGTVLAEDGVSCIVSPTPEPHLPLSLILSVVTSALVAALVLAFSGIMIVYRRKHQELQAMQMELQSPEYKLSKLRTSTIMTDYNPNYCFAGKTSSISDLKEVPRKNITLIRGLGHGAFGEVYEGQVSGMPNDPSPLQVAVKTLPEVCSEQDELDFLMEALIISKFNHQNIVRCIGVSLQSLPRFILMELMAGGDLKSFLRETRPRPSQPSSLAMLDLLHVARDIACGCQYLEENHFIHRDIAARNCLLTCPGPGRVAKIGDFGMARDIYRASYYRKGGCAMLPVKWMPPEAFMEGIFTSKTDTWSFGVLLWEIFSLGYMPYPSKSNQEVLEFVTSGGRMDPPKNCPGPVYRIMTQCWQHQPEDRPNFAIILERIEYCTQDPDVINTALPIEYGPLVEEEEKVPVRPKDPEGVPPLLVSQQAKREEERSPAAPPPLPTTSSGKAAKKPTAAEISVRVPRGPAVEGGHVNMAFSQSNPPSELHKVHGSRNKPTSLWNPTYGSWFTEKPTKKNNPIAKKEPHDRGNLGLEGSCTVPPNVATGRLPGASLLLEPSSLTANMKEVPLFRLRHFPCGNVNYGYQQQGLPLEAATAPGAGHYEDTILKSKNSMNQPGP

Turning to `C=CC(=O)N1CCC[C@@H](n2nc(-c3ccc(Oc4ccccc4)cc3)c3c(N)ncnc32)C1` [Compound 1g, Ibrutinib, reference compound], the remaining binding at 1 µM came to 100% at ALK(L1196M) (@1000nM, read-out: %Control); 100% on ALK(L1196M) (read-out: %Control @1000nM); 96% at MET(Y1235D) (@1000nM, read-out: %Control); 96% at MET(Y1235D) (read-out: %Control @1000nM); 61% on FLT3(R834Q) (@1000nM, read-out: %Control); 61% on FLT3(R834Q) (read-out: %Control @1000nM). The remaining binding at 1 µM on EPHA3 (@1000nM, read-out: %Control) stood at 76%; at EPHA3 (read-out: %Control @1000nM), 76%.
By IC50 is commonly meant the concentration needed to halve the response being measured. Read a high IC50 as weaker potency. By remaining activity is commonly meant the share of the control activity or signal that is left under treatment. On wild-type BTK, `Cc1cnc(S(C)(=O)=O)nc1N1CCCC(n2nc(-c3ccc(Oc4ccccc4)cc3)c3c(N)ncnc32)C1` (stereo not shown) [Compound 8a, 1-(1-(5-Methyl-2-(methylsulfonyl)pyrimidin-4-yl)piperidin-3-yl)-3-(4-phenoxyphenyl)-1H-pyrazolo[3,4-d]pyrimidin-4-amine] gave an IC50 of 24 ± 2 nM. The remaining activity at 0.1 µM on wild-type BTK worked out at 4 ± 1%. Moreover, the difference in % of control vs compound Ib at 1 µM on ALK(L1196M) (@1000nM) is -5%. Besides, the remaining binding at 1 µM at ALK(L1196M) (@1000nM, read-out: %Control) was determined as 95%; at ALK(L1196M) (read-out: %Control @1000nM) it was 95%; on MET(Y1235D) (@1000nM, read-out: %Control) it was 100%; on MET(Y1235D) (read-out: %Control @1000nM) it was 100%; on FLT3(R834Q) (@1000nM, read-out: %Control), 70%; at FLT3(R834Q) (read-out: %Control @1000nM), 70%. Moreover, the remaining binding at 1 µM turned out to be 38% on BMX (@1000nM, read-out: %Control); 38% at BMX (read-out: %Control @1000nM); 81% on EPHA3 (@1000nM, read-out: %Control); 81% on EPHA3 (read-out: %Control @1000nM). Further, the difference in %Control versus compound Ib at 1 µM at FLT3(R834Q) (@1000nM) is 9%; at BMX (@1000nM) it was -3%. Further, the difference in % of control versus compound Ib at 1 µM on EPHA3 (@1000nM) is 5%.
On to `COC(=O)c1cnc(S(C)(=O)=O)nc1N1CCCC(n2nc(-c3ccc(Oc4ccccc4)cc3)c3c(N)ncnc32)C1` (stereo not shown) [Compound 8b, Methyl 4-(3-(4-Amino-3-(4-phenoxyphenyl)-1H-pyrazolo[3,4-d]pyrimidin-1-yl)piperidin-1-yl)-2-(methylsulfonyl)pyrimidine-5-carboxylate], for which it took 57 ± 1 nM to reach half-maximal inhibition on wild-type BTK (IC50). Besides, the remaining activity at 0.1 µM at wild-type BTK is 2 ± 1%. Besides, the difference in % of control vs compound Ib at 1 µM at ALK(L1196M) (@1000nM) is -8%. The remaining binding at 1 µM stood at 92% at ALK(L1196M) (@1000nM, read-out: %Control); 92% at ALK(L1196M) (read-out: %Control @1000nM); 94% at MET(Y1235D) (@1000nM, read-out: %Control); 94% on MET(Y1235D) (read-out: %Control @1000nM); 83% on FLT3(R834Q) (@1000nM, read-out: %Control); 83% at FLT3(R834Q) (read-out: %Control @1000nM). The remaining binding at 1 µM at BMX (@1000nM, read-out: %Control) amounted to 53%; at BMX (read-out: %Control @1000nM), 53%; on EPHA3 (@1000nM, read-out: %Control), 77%; at EPHA3 (read-out: %Control @1000nM) it was 77%. The difference in %Control versus compound Ib at 1 µM on FLT3(R834Q) (@1000nM) is 22%; on BMX (@1000nM), 12%. On EPHA3 (@1000nM), the difference in % of control versus compound Ib at 1 µM stood at 1%.
On to `CCOC(=O)c1cnc(S(C)(=O)=O)nc1N1CCC[C@@H](n2nc(-c3ccc(Oc4ccccc4)cc3)c3c(N)ncnc32)C1` [Compound 8c, Ethyl (R)-4-(3-(4-Amino-3-(4-phenoxyphenyl)-1H-pyrazolo[3,4-d]pyrimidin-1-yl)piperidin-1-yl)-2-(methylsulfonyl)pyrimidine-5-carboxylate], for which the difference in % of control vs compound Ib at 1 µM at ALK(L1196M) (@1000nM) was -23%. In addition, the remaining binding at 1 µM came out at 77% at ALK(L1196M) (@1000nM, read-out: %Control); 77% at ALK(L1196M) (read-out: %Control @1000nM); 100% at MET(Y1235D) (@1000nM, read-out: %Control); 100% at MET(Y1235D) (read-out: %Control @1000nM); 99% on FLT3(R834Q) (@1000nM, read-out: %Control); 99% on FLT3(R834Q) (read-out: %Control @1000nM). Further, the remaining binding at 1 µM at BMX (@1000nM, read-out: %Control) was 69%; on BMX (read-out: %Control @1000nM), 69%; on EPHA3 (@1000nM, read-out: %Control) it was 77%; on EPHA3 (read-out: %Control @1000nM) it was 77%. Moreover, the difference in %Control versus compound Ib at 1 µM worked out at 38% on FLT3(R834Q) (@1000nM) and 28% at BMX (@1000nM). Further, the difference in % of control versus compound Ib at 1 µM on EPHA3 (@1000nM) was found to be 1%.
For `CNC(=O)c1cnc(S(C)(=O)=O)nc1N1CCCC(n2nc(-c3ccc(Oc4ccccc4)cc3)c3c(N)ncnc32)C1` (stereo not shown) [Compound 8d, 4-(3-(4-Amino-3-(4-phenoxyphenyl)-1H-pyrazolo[3,4-d]pyrimidin-1-yl)piperidin-1-yl)-N-methyl-2-(methylsulfonyl)pyrimidine-5-carboxamide], the IC50 against wild-type BTK came to 28 ± 6 nM. The remaining activity at 0.1 µM at wild-type BTK is 2 ± 0.5%. At ALK(L1196M) (@1000nM), the difference in % of control vs compound Ib at 1 µM was -21%. The remaining binding at 1 µM on ALK(L1196M) (@1000nM, read-out: %Control) amounted to 79%; at ALK(L1196M) (read-out: %Control @1000nM) it was 79%; on MET(Y1235D) (@1000nM, read-out: %Control) it was 91%; at MET(Y1235D) (read-out: %Control @1000nM), 91%; on FLT3(R834Q) (@1000nM, read-out: %Control), 90%; at FLT3(R834Q) (read-out: %Control @1000nM), 90%. The remaining binding at 1 µM at BMX (@1000nM, read-out: %Control) was 61%; on BMX (read-out: %Control @1000nM), 61%; on EPHA3 (@1000nM, read-out: %Control), 84%; at EPHA3 (read-out: %Control @1000nM) it was 84%. For the same molecule, the figures for the difference in %Control versus compound Ib at 1 µM at FLT3(R834Q) (@1000nM) and at BMX (@1000nM) were 29% and 20%, respectively. The difference in % of control versus compound Ib at 1 µM on EPHA3 (@1000nM) was 8%.
